Experimental data taken from ChEMBL document CHEMBL3885881, “DrugMatrix”.

Species: Rattus norvegicus
Assay: DrugMatrix - Regimen: Daily Repeat
Type: toxicity, organism-based, Sprague-Dawley
Parameters: regimen Daily Repeat, gender Male, age 6-8 weeks
Settings: in vivo, po, route oral GAVAGE, […]; for TOTAL PROTEIN / ALANINE AMINOTRANSFERASE / ALBUMIN / ALKALINE PHOSPHATASE / ASPARTATE AMINOTRANSFERASE / BLOOD UREA NITROGEN / CARBON DIOXIDE / CHLORIDE / CHOLESTEROL / CREATINE PHOSPHOKINASE / CREATININE / GLUCOSE / LACTATE DEHYDROGENASE / LIPASE / PHOSPHORUS / POTASSIUM / SODIUM / TOTAL BILIRUBIN: tissue Plasma; for ABSOLUTE BASOPHIL / ABSOLUTE EOSINOPHIL / ABSOLUTE LYMPHOCYTE / ABSOLUTE MONOCYTE / ABSOLUTE SEGMENTED NEUTROPHIL / BASOPHIL / EOSINOPHIL / ERYTHROCYTE COUNT / HEMATOCRIT / HEMOGLOBIN / LEUKOCYTE COUNT / LYMPHOCYTE / MEAN CORPUSCULAR HEMOGLOBIN / MEAN CORPUSCULAR HEMOGLOBIN CONCENTRATION / MEAN CORPUSCULAR VOLUME / MONOCYTE / NEUTROPHIL / NUCLEATED RED BLOOD CELLS / PLATELET COUNT: tissue Blood
[1] = 40 mg/kg, 120 h, dose level Low, time 5 day
[2] = 90 mg/kg, 72 h, dose level High, time 3 day
[3] = 90 mg/kg, 120 h, dose level High, time 5 day

CN(C)CCCC1(c2ccc(F)cc2)OCc2cc(C#N)ccc21 (stereo not given) [CITALOPRAM]
TOTAL PROTEIN (40 mg/kg, 72 h, dose level Low, time 3 day): 4.8 G/DL
ABSOLUTE BASOPHIL [1]: 0 CELLS/uL
ABSOLUTE EOSINOPHIL [1]: 0 CELLS/uL
ABSOLUTE LYMPHOCYTE [1]: 8782.67 CELLS/uL
ABSOLUTE MONOCYTE [1]: 193 CELLS/uL
ABSOLUTE SEGMENTED NEUTROPHIL [1]: 424.33 CELLS/uL
BASOPHIL [1]: 0%
EOSINOPHIL [1]: 0%
ERYTHROCYTE COUNT [1]: 5.43 x10E6/uL
HEMATOCRIT [1]: 34.67%
HEMOGLOBIN [1]: 13.13 G/DL
LEUKOCYTE COUNT [1]: 9.4 x10E3/uL
LYMPHOCYTE [1]: 93.67%
MEAN CORPUSCULAR HEMOGLOBIN [1]: 24.23 pg
MEAN CORPUSCULAR HEMOGLOBIN CONCENTRATION [1]: 37.87 G/DL
MEAN CORPUSCULAR VOLUME [1]: 63.9 fL
MONOCYTE [1]: 2%
NEUTROPHIL [1]: 4.33%
NUCLEATED RED BLOOD CELLS [1]: 0 /100WBC
PLATELET COUNT [1]: 1141.33 x10E3/uL
ALANINE AMINOTRANSFERASE [1]: 63 u/L
ALBUMIN [1]: 3.87 G/DL
ALKALINE PHOSPHATASE [1]: 433.67 u/L
ASPARTATE AMINOTRANSFERASE [1]: 95 u/L
BLOOD UREA NITROGEN [1]: 10.67 mg/dL
CARBON DIOXIDE [1]: 31.33 mmol/L
CHLORIDE [1]: 100.67 MEQ/L
CHOLESTEROL [1]: 73 mg/dL
CREATINE PHOSPHOKINASE [1]: 389.67 u/L
CREATININE [1]: 0.14 mg/dL
GLUCOSE [1]: 160 mg/dL
LACTATE DEHYDROGENASE [1]: 173.67 u/L
LIPASE [1]: 10.67 u/L
PHOSPHORUS [1]: 10.57 mg/dL
POTASSIUM [1]: 5.68 MEQ/L
SODIUM [1]: 145.67 MEQ/L
TOTAL BILIRUBIN [1]: 0.1 mg/dL
TOTAL PROTEIN [1]: 5.87 G/DL
ABSOLUTE BASOPHIL [2]: 0 CELLS/uL
ABSOLUTE EOSINOPHIL [2]: 0 CELLS/uL
ABSOLUTE LYMPHOCYTE [2]: 13332.67 CELLS/uL
ABSOLUTE MONOCYTE [2]: 32 CELLS/uL
ABSOLUTE SEGMENTED NEUTROPHIL [2]: 868.67 CELLS/uL
BASOPHIL [2]: 0%
EOSINOPHIL [2]: 0%
ERYTHROCYTE COUNT [2]: 5.39 x10E6/uL
HEMATOCRIT [2]: 34.6%
HEMOGLOBIN [2]: 13.63 G/DL
LEUKOCYTE COUNT [2]: 14.23 x10E3/uL
LYMPHOCYTE [2]: 93.67%
MEAN CORPUSCULAR HEMOGLOBIN [2]: 25.3 pg
MEAN CORPUSCULAR HEMOGLOBIN CONCENTRATION [2]: 39.4 G/DL
MEAN CORPUSCULAR VOLUME [2]: 64.2 fL
MONOCYTE [2]: 0.33%
NEUTROPHIL [2]: 6%
NUCLEATED RED BLOOD CELLS [2]: 0 /100WBC
PLATELET COUNT [2]: 1096.33 x10E3/uL
ALANINE AMINOTRANSFERASE [2]: 59.67 u/L
ALBUMIN [2]: 3.87 G/DL
ALKALINE PHOSPHATASE [2]: 376.33 u/L
ASPARTATE AMINOTRANSFERASE [2]: 89 u/L
BLOOD UREA NITROGEN [2]: 9.33 mg/dL
CARBON DIOXIDE [2]: 26.67 mmol/L
CHLORIDE [2]: 102.5 MEQ/L
CHOLESTEROL [2]: 65.67 mg/dL
CREATINE PHOSPHOKINASE [2]: 142.33 u/L
CREATININE [2]: 0.11 mg/dL
GLUCOSE [2]: 156 mg/dL
LACTATE DEHYDROGENASE [2]: 214.33 u/L
PHOSPHORUS [2]: 10.6 mg/dL
POTASSIUM [2]: 6.1 MEQ/L
SODIUM [2]: 145.75 MEQ/L
TOTAL BILIRUBIN [2]: 0.2 mg/dL
TOTAL PROTEIN [2]: 5.5 G/DL
ABSOLUTE BASOPHIL [3]: 0 CELLS/uL
ABSOLUTE EOSINOPHIL [3]: 0 CELLS/uL
ABSOLUTE LYMPHOCYTE [3]: 14553.33 CELLS/uL
ABSOLUTE MONOCYTE [3]: 322.67 CELLS/uL
ABSOLUTE SEGMENTED NEUTROPHIL [3]: 1290.67 CELLS/uL
BASOPHIL [3]: 0%
EOSINOPHIL [3]: 0%
ERYTHROCYTE COUNT [3]: 5.96 x10E6/uL
HEMATOCRIT [3]: 37.47%
HEMOGLOBIN [3]: 14.47 G/DL
LEUKOCYTE COUNT [3]: 16.17 x10E3/uL
LYMPHOCYTE [3]: 90.67%
MEAN CORPUSCULAR HEMOGLOBIN [3]: 24.33 pg
MEAN CORPUSCULAR HEMOGLOBIN CONCENTRATION [3]: 38.67 G/DL
MEAN CORPUSCULAR VOLUME [3]: 62.9 fL
MONOCYTE [3]: 2%
NEUTROPHIL [3]: 7.33%
NUCLEATED RED BLOOD CELLS [3]: 0 /100WBC
PLATELET COUNT [3]: 1137 x10E3/uL
ALANINE AMINOTRANSFERASE [3]: 40.33 u/L
ALBUMIN [3]: 4 G/DL
ALKALINE PHOSPHATASE [3]: 365 u/L
ASPARTATE AMINOTRANSFERASE [3]: 81.67 u/L
CARBON DIOXIDE [3]: 28.67 mmol/L
CHLORIDE [3]: 100 MEQ/L
CHOLESTEROL [3]: 70.33 mg/dL
CREATINE PHOSPHOKINASE [3]: 309.67 u/L
CREATININE [3]: 0.14 mg/dL
GLUCOSE [3]: 179.33 mg/dL
LACTATE DEHYDROGENASE [3]: 263 u/L
LIPASE [3]: 10.67 u/L
PHOSPHORUS [3]: 11.03 mg/dL
POTASSIUM [3]: 5.22 MEQ/L
SODIUM [3]: 145.33 MEQ/L
TOTAL BILIRUBIN [3]: 0.13 mg/dL
TOTAL PROTEIN [3]: 6.03 G/DL
